Measurements reported in US20100016355A1, “ALPHA-2B ADRENERGIC RECEPTOR AGONIST AND SEROTONIN-NOREPINEPHRINE REUPTAKE INHIBITOR COMPOSITIONS FOR TREATING CHRONIC PAIN” (priority 2006, published 2010).

Tested on: Chung rat model of chronic pain (allodynia)
Assay: Chung rat model of chronic pain
Format: in vivo
Conditions: rats
Description: Amitriptyline was administered intraperitoneally to rats at a minimally effective dose; that is, the compound was administered at a dose that, when administered alone, is the minimum dose required to relieve pain (this dose was calculated by finding, first, the dose that produced drug's maximum effect—that is, the dose that fully alleviated pain—and dividing that dose by […]; the result is a dose that is slightly less than 50% of the dose that is required to produce the drug's maximum effect) The rats then immediately received one of two alpha-2B receptor agonists, compound No. 95 and compound no. No. 27, or received no additional compound, at all. Compound No. 95 and Compound No. 27 were administered intraperitoneally at ineffective doses; that is, these compounds were administered at doses that, when administered alone, are not effective in relieving pain. Pain reversal was then assessed using the Chung rat model of chronic pain. The model is described by Kim and Chung, Pain, […], at 355-363 (1992) and in U.S. Pat. No. 7,091,232, both of which are incorporated by reference herein.

Structure (SMILES): CN(C)CCC=C1c2ccccc2CCc2ccccc21 [Amitriptyline, reference compound]
- Pain Reversal (amitriptyline alone, 30 μg/kg intraperitoneally (minimally effective dose)): 43%
- Pain Reversal (amitriptyline alone, 30 μg/kg intraperitoneally (minimally effective dose), listed as amitriptyline): 43%

Structure (SMILES): C1=NC(CC2CCc3ccccc3C2)CN1 (stereo not shown) [Compound No. 27]
- Pain Reversal (Compound No. 27 10 μg/kg i.p. (ineffective dose alone) given immediately after amitriptyline 30 μg/kg i.p.): 81%

Structure (SMILES): C[C@@H](c1c[nH]c(=S)[nH]1)c1cccc2ncccc12 [Compound No. 95]
- Pain Reversal (Compound No. 95 1 μg/kg i.p. (ineffective dose alone) given immediately after amitriptyline 30 μg/kg i.p.): 80%
